In publication PMC7551591, “The Effect of Resveratrol or Curcumin on Head and Neck Cancer Cells Sensitivity to the Cytotoxic Effects of Cisplatin” (Nutrients, 2020):

Experiments:
Type in all cases: cell-based, human
[1] = test system: PE/CA-PJ49 tumor cells; assay: MTT drug sensitivity (viability) assay, tumor cells; conditions: PE/CA-PJ49, 24 h
Experimental: (§1) The MTT assay is based on the ability of viable cells to reduce the reagent 3-(4,5-dimethylthiazol-2-yl)-2,5-diphenyltetrazolium bromide to colored formazan compounds [48]. Because the transformation is only possible in viable cells, the amount of blue formazan is proportional to the number of viable cells and thus, a linear dependence exists between cell activity and absorbance. Cells were seeded in triplicate in 96-well plates at a density of 5000 cells/well, incubated at 37 °C for 24 h. […] After the incubation period, 20 μL MTT (5 mg/mL in PBS) was added and further incubated for 4 h. The supernatant was removed, and the formazan product was analyzed spectrophotometrically (570 nm) after dissolution in DMSO. Wells without cells serve as a blank, and their absorbance was subtracted from the other results. Untreated cells were used as control and their viability was assumed as 100%. Results were expressed as mean values of three determinations ± standard deviation (SD). Data are presented as percent of cell viability and compared to untreated [Viability% = (T − B)/(U − B) × 100, {where T = absorbance of treated cells; U = absorbance of untreated cells, B = absorbance of blank}]. Once percent viability was obtained, the drug response curve was generated, and inhibitory concentration (IC50 and IC25) was calculated using GraphPad Prism version 5.01 [49].
(§2) SI values of more than 2 were considered as indicative of high selectivity.
(§3) The anticancer cytotoxic activity in vitro was evaluated by the MTT assay. […] The most widely used and informative measure of a drug’s efficacy is IC50-the half-maximal inhibitory concentration. IC50 was determined at half of the difference between the maximum (plateau) and minimum absorbance values, by plotting the absorbance value at 570 nm (Y axis) versus the concentration of the compound analysed (X axis). The IC50 values were reported as a mean of three independent experiments ± standard deviation (S.D.).

[2] = test system: PE/CA-PJ49 tumor cells; assay: Annexin V-FITC/PI apoptosis flow cytometry, tumor cells; conditions: 24 h
Experimental: (§4) The apoptosis assay was carried out with the Annexin V-FITC kit using the manufacturer’s (BD Pharmingen) protocol. Treated and untreated 1 × 10^6 cells/mL were resuspended in cold binding buffer and staining simultaneously with 5 μL FITC-Annexin V (green fluorescence) and 5 μL propidium iodide (PI) in the dark, at room temperature for 15 min. Then, 400μL of Annexin V binding buffer was added and 10,000 cells/sample were acquired using a BD Canto II flow cytometer. The analysis was performed using DIVA 6.2 software in order to discriminate viable cells (FITC^−PI^−) from necrotic cells […] and early apoptosis (FITC^+PI^−) from late apoptosis.
(§5) Apoptosis can be seen as an efficient method of preventing malignant transformation, as it ensures the removal of cells which present with genetic alterations. Deficient apoptosis can promote the development of cancer, both through the accumulation of cells found during division and the blocking of the removal of cells with high malignant potential genetic variations. The factors which determine the cells to follow one of three possible pathways are not yet known – the start of apoptosis after cellular injury, the repair of the lesion or the continuation of the cellular cycle. Many therapeutical agents have anti-tumoral effects generated by their capacity to activate the apoptotic process. […] The flow cytometric analysis was performed using DIVA 6.2 software and allowed to discriminate viable cells (FITC^−PI^− = Q3) from necrotic cells (FITC^−PI^+ = Q1) and early apoptosis (FITC^+PI^− = Q4) from late apoptosis (FITC^+PI^+ = Q2).

[3] = test system: HUVEC normal cells; assay: Annexin V-FITC/PI apoptosis flow cytometry, normal cells; conditions: 24 h; for Apoptoza Tarzie = Q2 (%): late apoptosis; for Apoptoza Totală = Q2+Q4 (%): total apoptosis
Experimental: as §4, §5

[4] = test system: p21 protein (CIP1/CDKN1A) expression in PE/CA-PJ49; assay: Total p21 protein ELISA in cell lysates, tumor cells; conditions: 24 h
Experimental: (§6) After incubation, cells were washed twice with ice-cold PBS, scraped, pelleted and lysed in RIPA buffer (Pierce) supplemented with protease inhibitor cocktail (Roche) and phosphatase inhibitor (Roche) for 30 min on ice. The lysates were transfered into microcentrifuge tubes and centrifuged at 14,000× g for 5 min at 4 °C followed by sonication (10–15 s × 3). The supernatants were collected into clean microcentrifuge tubes and stored at −80 °C. Lysates protein concentration were quantified by BCA protein assay kit (Thermo Scientific) and aliquots of 50 μg of total cell lysate were used for ELISA assay.
(§7) DuoSetR IC ELISA-Human Total p21/CIP1/CDKN1A(: DYC1047-2) was purchased from R&D Systems Inc. and contains the basic components required for the development of sandwich ELISAs to measure human p21 protein also known as CIP1 and CDKN1A in cell lysates. An immobilized capture antibody specifically binds human p21. After washing away unbound material, a biotinylated detection antibody specific for human p21 is used to detect the captured protein, utilizing a standard Streptavidin-HRP format. All experiments were performed in triplicates and absorbance was measured at λ = 450 nm using a Dynex plate reader.
(§8) In cancer development and evolution p21 protein might acts as an oncogene or tumor suppressor and for this reason it could be an important player in processes such as the cancer aggressiveness or the response to chemotherapy. In this study, using ELISA assay we analyzed the expression level of p21 in the tumor cells (PE-CA/PJ49) compared to a normal cells (HUVEC).

[5] = test system: HUVEC normal cells; assay: MTT drug sensitivity (viability) assay, normal cells; conditions: 24 h
Experimental: as §1, §2, §3

[6] = test system: p21 protein (CIP1/CDKN1A) expression in HUVEC; assay: Total p21 protein ELISA in cell lysates, normal cells; conditions: 24 h
Experimental: as §6, §7, §8

[7] = test system: HUVEC normal cells; assay: Cell cycle phase distribution by PI flow cytometry, normal cells; conditions: 24 h
Experimental: (§9) For analysis of cell-cycle distribution, the cells were collected after treatment, fixed with 70% ethanol for at least one hour at 4 °C. The cells were stained with propidium iodide (PI) an agent which intercalates into the major groove of double-stranded DNA and produces a highly fluorescent adduct that can be excited at 488 nm with a broad emission around 600 nm. Since PI can also bind to double-stranded RNA, it is necessary to treat the cells with RNase for optimal DNA resolution. Cells (1×10^6 cells/mL) were washed in PBS and centrifuge at 300× g, 5 min at 4 °C. The pellet of the cells were incubated for 10 min at 37 °C with 0.5 mg/sample RNase A and then was added 10 μg/sample of PI staining solution to cell pellet, mix well and incubated 10 min at 37 °C. The samples stored at 4 °C until analyzed by flow cytometry. A minimum of 20,000 events for each sample were collected using a FACS CantoII flow cytometer and ModFIT software (BectonDickinson) and used to determine the cell cycle phase distribution after debris exclusion.
(§10) The progression through the cell cycle phases induced by treatment were evaluated by flow cytometry using a FACSCanto II flow cytometer. Data analysis were performed using the ModFit 3.2 program which offers the possibility of evaluating the cell cycle phases distribution (G0/G1, S, G2 + M).

[8] = test system: PE/CA-PJ49 tumor cells; assay: Cell cycle phase distribution by PI flow cytometry, tumor cells; conditions: 24 h, CisPt 20 μM
Experimental: as §9, §10

N.N.[Cl][Pt][Cl] [CisPt, cis-diamminedichloroplatinum]
cell viability (MTT) ([1]; CisPt 5 μM vs untreated cells): significantly affected
cell viability (MTT) ([1]; CisPt 20 μM vs untreated cells): significantly affected
IC 25 ([1]; MTT): 3.95 ± 1.2 µM
IC50 ([1]; MTT): 9.72 ± 1.7 µM
Early Apoptosis = Q4 (%) ([2]; 5 μM CisPt): 11.3%
Late Apoptosis = Q2 (%) ([2]; 5 μM CisPt): 1.2%
Necrosis = Q1 (%) ([2]; 5 μM CisPt): 2.1%
Total Apoptosis = Q2 + Q4 (%) ([2]; 5 μM CisPt): 12.5%
Early Apoptosis = Q4 (%) ([2]; 20 μM CisPt): 15.3%
Late Apoptosis = Q2 (%) ([2]; 20 μM CisPt): 2.1%
Necrosis = Q1 (%) ([2]; 20 μM CisPt): 1.4%
Total Apoptosis = Q2 + Q4 (%) ([2]; 20 μM CisPt): 17.4%
Early Apoptosis = Q4 (%) ([3]; 5 μM CisPt): 5.6%
Necrosis = Q1 (%) ([3]; 5 μM CisPt): 1.6%
Early Apoptosis = Q4 (%) ([3]; 20 μM CisPt): 7.7%
Necrosis = Q1 (%) ([3]; 20 μM CisPt): 1.5%
Apoptoza Tarzie = Q2 (%) ([3]; 5 μM CisPt): 0.5%
Apoptoza Tarzie = Q2 (%) ([3]; 20 μM CisPt): 0.5%
Apoptoza Totală = Q2+Q4 (%) ([3]; 5 μM CisPt): 6.1%
Apoptoza Totală = Q2+Q4 (%) ([3]; 20 μM CisPt): 8.2%
p21 pg/mL PE/CA-PJ49 ([4]; 5 μM CisPt): 1157 pg/mL
p21 pg/mL PE/CA-PJ49 ([4]; 20 μM CisPt): 915 pg/mL
cell viability (MTT) ([5]; CisPt 5 μM vs untreated cells): significantly reduced
cell viability (MTT) ([5]; CisPt 20 μM vs untreated cells): significantly reduced
IC 25 ([5]; MTT): 5.82 ± 1.1 µM
IC50 ([5]; MTT): 20.9 ± 2.1 µM
p21 pg/mL HUVEC ([6]; 5 μM CisPt): 238 pg/mL
p21 pg/mL HUVEC ([6]; 20 μM CisPt): 195 pg/mL
synthesis phase (S) ([7]; 5 μM CisPt): 29.2%
S% ([7]; CisPt 20 μM): 39.65%
G2/M% [8]: 27.5%
